Test: xn = mol fraction of the nth substance listed
Conditions: Liquid, Vibrating tube method

CCCCCCCCCCCC [dodecane] + CCCCCCCCCC
Conditions | mass density [kg/m3]
283.29 K, 100 kPa, x2 = 0 | 756
283.29 K, 1000 kPa, x2 = 0 | 757
283.29 K, 3000 kPa, x2 = 0 | 758
283.3 K, 5000 kPa, x2 = 0 | 760
283.3 K, 10000 kPa, x2 = 0 | 763
283.3 K, 30000 kPa, x2 = 0 | 775
283.3 K, 40000 kPa, x2 = 0 | 780
283.3 K, 50000 kPa, x2 = 0 | 785
283.3 K, 60000 kPa, x2 = 0 | 790
283.31 K, 20000 kPa, x2 = 0 | 769
283.31 K, 70000 kPa, x2 = 0 | 795
283.32 K, 80000 kPa, x2 = 0 | 799
283.32 K, 90000 kPa, x2 = 0 | 803
283.46 K, 100 kPa, x2 = 0.4436 | 748
283.47 K, 1000 kPa, x2 = 0.4436 | 749
283.47 K, 5000 kPa, x2 = 0.4436 | 752
283.48 K, 10000 kPa, x2 = 0.4436 | 755
283.48 K, 20000 kPa, x2 = 0.4436 | 762
283.48 K, 40000 kPa, x2 = 0.4436 | 773
283.49 K, 30000 kPa, x2 = 0.4436 | 767
283.49 K, 60000 kPa, x2 = 0.4436 | 783
283.49 K, 80000 kPa, x2 = 0.4436 | 792
283.49 K, 100000 kPa, x2 = 0.4436 | 801
283.52 K, 100 kPa, x2 = 0.2297 | 752
283.52 K, 1000 kPa, x2 = 0.2297 | 753
283.52 K, 5000 kPa, x2 = 0.2297 | 755
283.52 K, 10000 kPa, x2 = 0.2297 | 759
283.52 K, 20000 kPa, x2 = 0.2297 | 765
283.52 K, 30000 kPa, x2 = 0.2297 | 771
283.52 K, 40000 kPa, x2 = 0.2297 | 776
283.53 K, 60000 kPa, x2 = 0.2297 | 786
283.53 K, 80000 kPa, x2 = 0.2297 | 796
283.54 K, 100000 kPa, x2 = 0.2297 | 804
283.57 K, 1000 kPa, x2 = 0.7841 | 743
283.58 K, 100 kPa, x2 = 0.7841 | 742
283.59 K, 5000 kPa, x2 = 0.7841 | 745
283.6 K, 10000 kPa, x2 = 0.7841 | 749
283.61 K, 100 kPa, x2 = 0.6433 | 745
283.61 K, 1000 kPa, x2 = 0.6433 | 745
283.61 K, 20000 kPa, x2 = 0.7841 | 755
283.61 K, 30000 kPa, x2 = 0.7841 | 761
283.61 K, 40000 kPa, x2 = 0.7841 | 767
283.61 K, 60000 kPa, x2 = 0.7841 | 777
283.61 K, 80000 kPa, x2 = 0.7841 | 787
283.61 K, 100000 kPa, x2 = 0.7841 | 795
283.62 K, 5000 kPa, x2 = 0.6433 | 748
283.62 K, 10000 kPa, x2 = 0.6433 | 752
283.62 K, 20000 kPa, x2 = 0.6433 | 758
283.62 K, 30000 kPa, x2 = 0.6433 | 764
283.62 K, 40000 kPa, x2 = 0.6433 | 770
283.62 K, 60000 kPa, x2 = 0.6433 | 780
283.62 K, 80000 kPa, x2 = 0.6433 | 789
283.62 K, 100000 kPa, x2 = 0.6433 | 798
293.17 K, 100 kPa, x2 = 0 | 749
293.18 K, 1000 kPa, x2 = 0 | 750
293.19 K, 5000 kPa, x2 = 0 | 753
293.19 K, 10000 kPa, x2 = 0 | 756
293.19 K, 20000 kPa, x2 = 0 | 763
293.19 K, 30000 kPa, x2 = 0 | 769
293.19 K, 40000 kPa, x2 = 0 | 774
293.19 K, 50000 kPa, x2 = 0 | 780
293.19 K, 70000 kPa, x2 = 0 | 789
293.19 K, 80000 kPa, x2 = 0 | 794
293.19 K, 90000 kPa, x2 = 0 | 798
293.19 K, 100000 kPa, x2 = 0 | 802
293.2 K, 60000 kPa, x2 = 0 | 785
293.43 K, 10000 kPa, x2 = 0.4436 | 749
293.43 K, 20000 kPa, x2 = 0.4436 | 755
293.43 K, 30000 kPa, x2 = 0.2297 | 765
293.43 K, 30000 kPa, x2 = 0.4436 | 761
293.43 K, 40000 kPa, x2 = 0.2297 | 771
293.43 K, 40000 kPa, x2 = 0.4436 | 767
293.43 K, 60000 kPa, x2 = 0.2297 | 781
293.43 K, 60000 kPa, x2 = 0.4436 | 778
293.43 K, 80000 kPa, x2 = 0.4436 | 787
293.43 K, 100000 kPa, x2 = 0.4436 | 796
293.44 K, 100 kPa, x2 = 0.4436 | 741
293.44 K, 1000 kPa, x2 = 0.4436 | 742
293.44 K, 5000 kPa, x2 = 0.4436 | 745
293.44 K, 20000 kPa, x2 = 0.2297 | 759
293.44 K, 80000 kPa, x2 = 0.2297 | 790
293.44 K, 100000 kPa, x2 = 0.2297 | 799
293.45 K, 100 kPa, x2 = 0.2297 | 745
293.45 K, 1000 kPa, x2 = 0.2297 | 746
293.45 K, 5000 kPa, x2 = 0.2297 | 749
293.45 K, 10000 kPa, x2 = 0.2297 | 752
293.51 K, 100000 kPa, x2 = 0.6433 | 793
293.52 K, 100 kPa, x2 = 0.6433 | 738
293.52 K, 1000 kPa, x2 = 0.6433 | 738
293.52 K, 5000 kPa, x2 = 0.6433 | 741
293.52 K, 10000 kPa, x2 = 0.6433 | 745
293.52 K, 20000 kPa, x2 = 0.6433 | 752
293.52 K, 30000 kPa, x2 = 0.6433 | 758
293.52 K, 40000 kPa, x2 = 0.6433 | 764
293.52 K, 60000 kPa, x2 = 0.6433 | 774
293.52 K, 80000 kPa, x2 = 0.6433 | 784
293.53 K, 60000 kPa, x2 = 0.7841 | 772
293.53 K, 80000 kPa, x2 = 0.7841 | 781
293.53 K, 100000 kPa, x2 = 0.7841 | 790
293.54 K, 100 kPa, x2 = 0.7841 | 735
293.54 K, 1000 kPa, x2 = 0.7841 | 735
293.54 K, 5000 kPa, x2 = 0.7841 | 738
293.54 K, 10000 kPa, x2 = 0.7841 | 742
293.54 K, 20000 kPa, x2 = 0.7841 | 749
293.54 K, 30000 kPa, x2 = 0.7841 | 755
293.54 K, 40000 kPa, x2 = 0.7841 | 761
303.04 K, 30000 kPa, x2 = 0 | 762
303.04 K, 100000 kPa, x2 = 0 | 797
303.05 K, 100 kPa, x2 = 0 | 742
303.05 K, 1000 kPa, x2 = 0 | 743
303.05 K, 5000 kPa, x2 = 0 | 746
303.05 K, 20000 kPa, x2 = 0 | 756
303.05 K, 50000 kPa, x2 = 0 | 774
303.05 K, 60000 kPa, x2 = 0 | 779
303.05 K, 70000 kPa, x2 = 0 | 784
303.05 K, 80000 kPa, x2 = 0 | 789
303.05 K, 90000 kPa, x2 = 0 | 793
303.06 K, 10000 kPa, x2 = 0 | 749
303.06 K, 40000 kPa, x2 = 0 | 768

From the NIST ThermoML archive (doi:10.1016/j.fluid.2017.12.010)
